Source: US20210400981A1, “ANTIMICROBIAL OZONE COMPOSITIONS AND METHODS OF USE THEREOF” (priority 2018, published 2021)

Legend:
[1] = tested on: S. aureus subspecies aureus Rosenbach, strain FDA 209; experiment: ASTM E1153-14 glass coupon test, 5 min treatment, CFU plate counts; assay type: cell-based, Staphylococcus aureus
From the text: A freeze-dried stock of Staphylococcus (S. aureus subspecies aureus Rosenbach, strain FDA 209) was obtained from American Type Culture Collection (ATCC, Manassas, Va.). After rehydration and growth in appropriate culture medium (Staphylococcus: BD Tryptic soy broth lot #4335611), both plated stocks and stocks frozen in glycerol were created. Staphylococcus was qualified for absorbance at 600 nm versus colony forming units (CFU) by serially diluting inoculum and reading absorbance followed by plating of dilutions onto agar plates. […] Twenty microliters of the resulting inoculum were used to coat glass slides (Fisher), also known as test squares or coupons with 10^5 to 10^7 cells, as calculated from the standard curve generated from the absorbance qualification data, and allowed to dry in a 37° C. incubator for 40 minutes following ASTM E1153-14 (www.astm.org/Standards/E1153.htm). […]
After incubation for 5 minutes following ASTM E1153-14, the supernatant in the vial was sampled and placed on test agar plates at a volume of 0.2 ml. […] Colony forming units (CFU) for each plate were counted, recorded and averaged for each sample. […] Sample CFUs were analyzed for statistical significance using the Mann Whitney U test with significance level α=0.05. […]

Salmonella enterica = experiment: Test coupons coated with Salmonella enterica, CFU reduction versus water; assay type: cell-based; conditions: 0.05M acetate buffer with or without 1.5 ppm aqueous ozone
Klebsiella = experiment: Test coupons coated with Klebsiella, CFU reduction versus water; conditions: acetate buffer with or without 1.5 ppm aqueous ozone
[2] = Ability of the buffer to accept aqueous ozone (kiosk sensors and instrumentation); assay type: physicochemical; conditions: buffer at approximate pH 5.5 to 6, ozonated with the CCT 1.0 kiosk
From the text: Additionally, not all buffering compounds are suitable or effective for use as additives. […] The MES and ascorbate buffers were unable to accommodate the addition of aqueous ozone, showing no ozone in the resulting solution according to the kiosk sensors and instrumentation.

[3] = cited from earlier work
[4] = tested on: Staphylococcus aureus subspecies aureus Rosenbach, strain FDA 209; experiment: AOAC method (961.02) spray disinfection of glass coupons, 10 min, turbidity (+/-) in Letheen broth; assay type: cell-based; conditions: for coupons negative: range-finding; for Percent kill / Number− / Number+: 10 min; for Number−: negative coupons; for Number+: positive coupons
From the text: A freeze-dried stock of Staphylococcus (Staphylococcus aureus subspecies aureus Rosenbach, strain FDA 209), as specified by the AOAC method (961.02), was obtained from ATCC. After rehydration and growth in appropriate culture medium (BD Tryptic soy broth lot #4335611), both plated stocks and stocks frozen in glycerol were created. Staphylococcus was quantified for absorbance at 600 nm versus colony forming units (CFU) by serially diluting inoculum and reading absorbance followed by plating of dilutions onto agar plates. Prior to aqueous ozone testing, growth medium was inoculated and incubated in a shaker incubator (New Brunswick Scientific, serial #890615130) at 37° C. for 24 hours and then transfer cultured two additional times with a final incubation of 48 hours. Twenty microliters of the resulting inoculum was used to coat glass slides (Fisher), also known as test squares or coupons, with 10^5 to 10^7 cells, as calculated from the standard curve generated from the absorbance qualification data, and allowed to dry in a 37° C. incubator for 40 minutes following ASTM E1153-14. After drying, treated coupons were sequentially treated with 1.5 or 4 ppm aqueous ozone alone, 1.5 or 4 ppm aqueous ozone combined with a predetermined dilution of PAA, or PAA alone, then incubated for 10 minutes at room temperature. Additionally, immediately before and after testing three inoculated untreated coupons were place in labeled 50 ml conical tubes containing 20 ml of Letheen broth, vortexed, pooled, and plated to provide carrier counts. The mean log 10 density (LD) of the carrier counts for S. aureus must be between 5.0 and 6.5 in order for the test to be valid in this method.
Briefly, aqueous ozone was generated using the free standing CCT 1.0 unit (mounted in a kiosk enclosure) at a concentration of 1.5 ppm or 4 ppm. The water source utilized by the CCT 1.0 was clean, cold, softened Omaha municipal tap water. […] Aqueous ozone was sterile collected in a biological safety cabinet before and used immediately. Treatments were applied to the appropriate freshly prepared coupons contained within labeled petri dishes using a sprayer provided by CleanCore.
Following the testing period, coupons were removed from the individual petri dishes and transferred to corresponding labeled 50 ml conical tubes containing 20 ml of Letheen broth. One sterile un-inoculated coupon and one inoculated untreated coupon were also transferred to separate labeled 50 ml conical tubes containing 20 ml of Letheen broth in order to provide sterility and viability controls, respectively. All testing vials were shaken then incubated at 36±1° C. for 48±2 hours, then visually assessed for turbidity(+). Positive sample vials were plated to determine colony morphology similarity to test organism. All test plates were plated with 0.2 ml spread onto 2 replicates using a glass spreader and a Bel-Art inoculating turntable. Results of testing were analyzed for statistical significance in SPSS using a McNemar exact test for dichotomous data, with a significance level of α=0.05.

Campylobacter jejuni = experiment: Antimicrobial spray on inoculated chicken carcasses, rinsate plate counts; assay type: cell-based
Protocol: (§1) Briefly, chicken carcasses (70 whole hen carcasses for 7 treatments and 10 replications) were inoculated with 400 mL of a cocktail containing Salmonella Typhimurium (UK-1), E. coli (J53), and Campylobacter jejuni (3×10^7 CFU/mL) and allowed to adhere for 60 minutes at 4° C. for a final concentration of 10^5-10^6 CFU/g. Chicken carcasses then received no treatment (negative control) or were then treated by spraying (4×5 seconds) with tap water, tap water with 10 ppm ozone, tap water with PAA (50 ppm), tap water with PAA (500 ppm), tap water with 10 ppm ozone and PAA (500 ppm), or tap water with 10 ppm ozone and PAA (50 ppm). Further, the ambient PAA was measured using a PAA specific sensor during treatment. After treatment, chicken carcasses were rinsed in 400 mL of neutralizing buffered peptone water (20.0 g of buffered peptone, 7 g of refined soy lecithin or equivalent, 1.0 g of sodium thiosulfate, 12.5 g of sodium bicarbonate, per 1 liter of deionized water) for 2 minutes with agitation. Subsequently, the rinsate was serially diluted, spread plated on Xylose Lysine Deoxycholate (XLD) and Blood Free Campylobacter Agar (BFCA; modified Charcoal-Cefoperazone-Deoxycholate agar (mCCDA)), and incubated aerobically at 37° C. for 24 hours and microaerophilic at 42° C. for 48 hours, respectively. Log-transformed counts were analyzed using one-way ANOVA in JMP 14.0. Means were separated using Tukey's HSD when P≤0.05.

[5] = tested on: Salmonella Typhimurium (UK-1); experiment: as above; assay type: cell-based; conditions: spray 4x5 seconds; 500 ppm PAA with or without 10 ppm ozone
Protocol: as §1

[6] = humans, after exposure; cited from earlier work
[7] = Table 16A, 1.5 ppm ozone and/or 15 ppm PAA
[8] = Table 16B, 4 ppm ozone and/or 15 ppm PAA
[9] = Table 16C, 1.5 ppm ozone and/or 10 ppm PAA
[10] = Table 16D, 1.5 ppm ozone and/or 20 ppm PAA, three experiments

## CC(=O)O [Acetic acid]
[1]; 0.05M acetate buffer with or without 1.5 ppm aqueous ozone
  log reduction of S. aureus CFU post treatment, compared to a water control: less than 1 log
[1]; acetate buffer alone, no ozone
  reduction versus water: 66.92%
Salmonella enterica
  log reduction of Salmonella CFU versus water: 1 log
Klebsiella
  log reduction in Klebsiella CFU versus the water control: 1 log

## O=C1O[C@H]([C@@H](O)CO)C(O)=C1O [Ascorbic acid]
[2]
  ozone in the resulting buffered solution: no ozone

## O=C(O)CC(O)(CC(=O)O)C(=O)O [Citric acid]
[2]
  ozone in the resulting buffered solution: did accept ozonation

## O=S(=O)(O)CCN1CCOCC1 [MES, 2-(N-morpholino) ethane sulfonic acid]
[2]
  ozone in the resulting buffered solution: no ozone

## O=C(O)C(=O)O [Oxalic acid]
[2]
  ozone in the resulting buffered solution: did accept ozonation
[3]
  pKa (second value): 4.40

## CC(=O)OO [PAA, peracetic acid]
[4]; PAA 10 ppm in sterile water
  coupons negative: 3 out of 10 coupons
[4]; PAA 25 ppm in sterile water
  coupons negative: 6 out of 10 coupons
[4]; PAA 50 ppm in sterile water
  coupons negative: 9 out of 10 coupons
[4]; PAA 100 ppm in sterile water
  coupons negative: 9 out of 10 coupons
[4]; [7]
  Percent kill: 76.7%
  Number−: 23
  Number+: 7
[4]; [8]
  Percent kill: 73.3%
  Number−: 22
  Number+: 8
[4]; [9]
  Percent kill: 6.7%
  Number−: 2
  Number+: 28
[4]; [10]
  Percent kill: 87.8%
  Number−: 79
  Number+: 11
Campylobacter jejuni; spray 4x5 seconds, 500 ppm PAA with or without 10 ppm ozone
  log CFU per gram of C. jejuni on carcasses: 4.81 log CFU/g
Campylobacter jejuni; spray on chicken carcasses, P≤0.05
  effect on Campylobacter compared to untreated controls: significantly reduced
[5]
  log CFU per gram of Salmonella on carcasses: 5.86 log CFU/g
[6]
  PAA level that can cause irritation to the upper respiratory tract: 5 ppm

## O=[O+][O-] [aqueous ozone, ozone]
[4]; [7]
  Percent kill: 0.0%
  Number−: 0
  Number+: 30
[4]; [8]
  Percent kill: 0.0%
  Number−: 0
  Number+: 30
[4]; [9]
  Percent kill: 0.0%
  Number−: 0
  Number+: 30
[4]; [10]
  Percent kill: 0.0%
  Number−: 0
  Number+: 90
